Key:
[1] = Dynamic Vapour Sorption (hygroscopicity); format: physicochemical; details: 50-0-95-50% r.h.
Excerpt: Dynamic Vapour Sorption measurements were taken using a DVS-1 water vapour sorption analyzer (Surface Measurement Systems Ltd.) or a Projekt Messtechnik SPS11-100n. The sample was allowed to equilibrate at 50% r.h. before starting a pre-defined humidity program (50-0-95-50% r.h., scanning with 5% Δr.h. hour-1 and with several isohumid equilibration periods).

[2] = pressure of 10 tons for 5 minutes; Raman microscope
Experimental: Crystalline form A was also tested for pressure stability by exposing a few milligrams of this form to a pressure of 10 tons for 5 minutes.

[3] = Stability of hemifumarate salt solution relative to free base solution at elevated temperature; format: physicochemical; details: solution/suspension in ethanol; 40° C., 50° C. and 60° C. for one week; compared with free base
Experimental: 30 g of compound I was prepared using the method of Example 3 of WO2004/103306. The hemifumarate salt of the invention was then prepared by reacting a suspension of 30.0 g of compound I and […] fumaric acid (5% conc.) in 200 g ethanol absolute (>99.9%) at room temperature (25° C.).
The stability of the hemifumarate salt solution relative to the free base solution was then tested by subjecting both solutions to conditions of elevated temperature (40° C., 50° C. and 60° C.) for a period of one week.

SMILES | hygroscopicity [1] | pressure stability (change in crystal form) [2] | stability of the hemifumarate salt solution relative to the free base solution [3]
CCc1cc(/C(C)=N/OCc2ccc(C3CCCCC3)c(C(F)(F)F)c2)ccc1CN1CC(C(=O)O)C1.CCc1cc(/C(C)=N/OCc2ccc(C3CCCCC3)c(C(F)(F)F)c2)ccc1CN1CC(C(=O)O)C1.O=C(O)/C=C/C(=O)O [Crystalline Form A] | low hygroscopicity | no change in form was observed | –
CCc1cc(/C(C)=N/OCc2ccc(C3CCCCC3)c(C(F)(F)F)c2)ccc1CN1CC(C(=O)O)C1.O=C(O)/C=C/C(=O)O [hemifumarate salt, 1-(4-{1-[(E)-4-Cyclohexyl-3-trifluoromethyl-benzyloxyimino]-ethyl}-2-ethyl-benzyl)-azetidine-3-carboxylic acid, (E)-but-2-enedioic acid] | – | – | superior stability
